Among the test systems are NCI-H522; HCT-15; MOLT-4; HL-60; BT-549; OVCAR-4; HCC 2998; U-251; UACC-62; SF-539; SK-MEL-2; RPMI-8226; MDA-MB-435; UACC-257; SK-MEL-5; SN12C; K562; EKVX; UO-31.
Holding throughout (test): DTP human tumour cell line panel, 48 h

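Exposure lasted 48 hours, with cells grown in 96-well plates and compounds tested at five concentrations. GI50 marks 50% less growth.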 Active and inactive are the calls of the source. Cut-off read from the data, not from the text of the source: active = GI50 up to about 1.1 µM and inactive = higher.

In general, GI50 refers to the concentration that inhibits growth by half. For `O=C(Cl)C1=C(c2ccccc2)C1c1ccccc1` (stereo not drawn), the GI50 in the experiment on NCI-H522 is > 100 µM (inactive); with HCT-15, over 100 µM; in the experiment with MOLT-4, > 100 µM (inactive); in the experiment with HL-60, > 100 µM (inactive); with BT-549, > 100 µM (inactive); in the experiment with OVCAR-4, > 100 µM (inactive). The GI50 with HCC 2998, in the experiment on U-251, with UACC-62, in the experiment on SF-539, in the experiment with SK-MEL-2 and in the experiment with RPMI-8226 was > 100 µM (inactive) throughout. The GI50 in the experiment with MDA-MB-435, in the experiment on UACC-257, with SK-MEL-5, with SN12C, in the experiment on K562 and in the experiment on EKVX was > 100 µM (inactive) in each case.

Consider `COc1ccc([N+](=O)[O-])c2c(NCC(O)CO)ccnc12` (stereo not drawn), for which the GI50 was 15.5 µM (inactive) in the experiment with NCI-H522; 16.1 µM in the experiment with HCT-15; 38.9 µM (inactive) in the experiment on MOLT-4; 51.1 µM (inactive) in the experiment with HL-60; 20 µM (inactive) in the experiment on BT-549; 13.5 µM (inactive) in the experiment on OVCAR-4. For the same compound, the GI50 was 32.2 µM (inactive) with HCC 2998; 50.4 µM (inactive) in the experiment with U-251; 22 µM (inactive) with UACC-62; 28.8 µM (inactive) in the experiment with SF-539; 23.1 µM (inactive) in the experiment with SK-MEL-2; 62.7 µM (inactive) with RPMI-8226. Further, the GI50 was > 100 µM (inactive) in the experiment with MDA-MB-435; 63.1 µM (inactive) in the experiment with UO-31; 28.1 µM (inactive) in the experiment with UACC-257; 23 µM (inactive) with SK-MEL-5; 77.8 µM (inactive) in the experiment on SN12C; 18.5 µM (inactive) with K562. The GI50 in the experiment on EKVX was 16.1 µM (inactive).

As to `Brc1ccc(/N=N/N2CCCC2)cc1`, the GI50 was 27.4 µM (inactive) with NCI-H522; 50.7 µM in the experiment on HCT-15; 28.6 µM (inactive) in the experiment on MOLT-4; 38.8 µM (inactive) in the experiment on HL-60; 44.6 µM (inactive) in the experiment on BT-549; > 100 µM (inactive) with OVCAR-4. The GI50 in the experiment with HCC 2998 was 40.6 µM (inactive); in the experiment on U-251, 89.1 µM (inactive); with UACC-62, > 100 µM (inactive); in the experiment with SF-539 it was > 100 µM (inactive); in the experiment on SK-MEL-2, 57.1 µM (inactive); in the experiment on RPMI-8226, 51.1 µM (inactive). In addition, the GI50 was 48.1 µM (inactive) with MDA-MB-435; 32.4 µM (inactive) with UO-31; 93.8 µM (inactive) with UACC-257; 27.1 µM (inactive) in the experiment on SK-MEL-5; 59 µM (inactive) with SN12C; 60 µM (inactive) with K562. The GI50 with EKVX is 66.7 µM (inactive).

On to `COc1c2occc2cc2ccc(=O)oc12` [METHOXSALEN], for which the GI50 in the experiment with HCT-15 was over 100 µM; in the experiment on MOLT-4 it was > 100 µM (inactive); with HL-60, 90.2 µM (inactive); in the experiment on BT-549, > 100 µM (inactive); in the experiment on OVCAR-4 it was > 100 µM (inactive); in the experiment on HCC 2998, > 100 µM (inactive). Moreover, the GI50 in the experiment on U-251 is > 100 µM (inactive); with UACC-62 it was 34.9 µM (inactive); with SF-539 it was > 100 µM (inactive); with SK-MEL-2, > 100 µM (inactive); in the experiment with RPMI-8226, > 100 µM (inactive); in the experiment on MDA-MB-435, > 100 µM (inactive). Moreover, the GI50 with UO-31, with UACC-257, in the experiment on SK-MEL-5, in the experiment on SN12C and with K562 was > 100 µM (inactive) in each case.
